Assays:
[1] = The drug is tested on Ruminococcus torques strain: ATCC27756 for biotransformation. The drug concentrations were measured before and after a 12-h incubation by liquid-chromatography-coupled mass spectrometry (LC–MS); format: ADME; set-up: dose 2 uM, timepoint 0 vs 12 hours; settings: 2 µM
[2] = The drug is tested on Eubacterium ventriosum strain: ATCC27560 for biotransformation. The drug concentrations were measured before and after a 12-h incubation by liquid-chromatography-coupled mass spectrometry (LC–MS); format: ADME; set-up: dose 2 uM, timepoint 0 vs 12 hours; settings: 2 µM
[3] = The drug is tested on Escherichia coli strain: BW25113 for biotransformation. The drug concentrations were measured before and after a 12-h incubation by liquid-chromatography-coupled mass spectrometry (LC–MS); settings: 2 µM
[4] = The drug is tested on Bacteroides coprophilus strain: DSM18228 for biotransformation. The drug concentrations were measured before and after a 12-h incubation by liquid-chromatography-coupled mass spectrometry (LC–MS); settings: 2 µM
[5] = The drug is tested on Eubacterium rectale strain: ATCC33656 for biotransformation. The drug concentrations were measured before and after a 12-h incubation by liquid-chromatography-coupled mass spectrometry (LC–MS); settings: agathobacter rectalis, 2 µM
[6] = The drug is tested on Providencia stuartii strain: ATCC25827 for biotransformation. The drug concentrations were measured before and after a 12-h incubation by liquid-chromatography-coupled mass spectrometry (LC–MS); settings: 2 µM
[7] = The drug is tested on Bacteroides ovatus strain: ATCC8483 for biotransformation. The drug concentrations were measured before and after a 12-h incubation by liquid-chromatography-coupled mass spectrometry (LC–MS); settings: 2 µM
[8] = The drug is tested on Eubacterium hallii strain: DSM3353 for biotransformation. The drug concentrations were measured before and after a 12-h incubation by liquid-chromatography-coupled mass spectrometry (LC–MS); settings: anaerobutyricum hallii, 2 µM
[9] = victivallis vadensis, 12 h, 2 µM
Description: The drug is tested on Victivallis vadensis strain: ATCC BAA-548 for biotransformation. The drug concentrations were measured before and after a 12-h incubation by liquid-chromatography-coupled mass spectrometry (LC–MS)

[10] = The drug is tested on Bacteroides sp. WH2 strain: WH2 for biotransformation. The drug concentrations were measured before and after a 12-h incubation by liquid-chromatography-coupled mass spectrometry (LC–MS); settings: bacteroides sp. wh2, 12 h, 2 µM
[11] = parabacteroides johnsonii, 12 h, 2 µM
Description: The drug is tested on Parabacteroides johnsonii strain: DSM18315 for biotransformation. The drug concentrations were measured before and after a 12-h incubation by liquid-chromatography-coupled mass spectrometry (LC–MS)

[12] = The drug is tested on Enterococcus faecalis strain: V583 for biotransformation. The drug concentrations were measured before and after a 12-h incubation by liquid-chromatography-coupled mass spectrometry (LC–MS); settings: 2 µM
[13] = The drug is tested on Clostridium ramosum strain: DSM1402 for biotransformation. The drug concentrations were measured before and after a 12-h incubation by liquid-chromatography-coupled mass spectrometry (LC–MS); settings: thomasclavelia ramosa, 2 µM
[14] = The drug is tested on Bifidobacterium longum subsp. Infantis strain: CCUG52486 for biotransformation. The drug concentrations were measured before and after a 12-h incubation by liquid-chromatography-coupled mass spectrometry (LC–MS); settings: 2 µM
[15] = The drug is tested on Bifidobacterium breve strain: DSM20213 for biotransformation. The drug concentrations were measured before and after a 12-h incubation by liquid-chromatography-coupled mass spectrometry (LC–MS); settings: 2 µM
[16] = bifidobacterium adolescentis, 12 h, 2 µM
Description: The drug is tested on Bifidobacterium adolescentis strain: ATCC 15703 for biotransformation. The drug concentrations were measured before and after a 12-h incubation by liquid-chromatography-coupled mass spectrometry (LC–MS)

[17] = The drug is tested on Collinsella aerofaciens strain: ATCC25986 for biotransformation. The drug concentrations were measured before and after a 12-h incubation by liquid-chromatography-coupled mass spectrometry (LC–MS); settings: 2 µM
[18] = enterocloster bolteae, 12 h, 2 µM
Description: The drug is tested on Clostridium bolteae strain: ATCCBAA-613 for biotransformation. The drug concentrations were measured before and after a 12-h incubation by liquid-chromatography-coupled mass spectrometry (LC–MS)

[19] = The drug is tested on Bacteroides xylanisolvens strain: DSM18836 for biotransformation. The drug concentrations were measured before and after a 12-h incubation by liquid-chromatography-coupled mass spectrometry (LC–MS); settings: 2 µM
[20] = The drug is tested on Bacteroides fragilis strain: HMW615 for biotransformation. The drug concentrations were measured before and after a 12-h incubation by liquid-chromatography-coupled mass spectrometry (LC–MS); settings: 2 µM

In the case of `CN1CCC(=C2c3ccccc3CCc3cccnc32)CC1.O=C(O)/C=C\C(=O)O.O=C(O)/C=C\C(=O)O` [AZATADINE MALEATE], the “Bacterial Biotransformation” value [1] is reported as “Compound NOT metabolized”, the “Bacterial Biotransformation” value [2] is reported as “Compound NOT metabolized” and the “Bacterial Biotransformation” value [3] is reported as “Compound NOT metabolized”. For the same compound, the “Bacterial Biotransformation” value [4] was “Compound NOT metabolized”, the “Bacterial Biotransformation” value [5] was “Compound NOT metabolized” and the “Bacterial Biotransformation” value [6] was “Compound NOT metabolized”. The “Bacterial Biotransformation” value [7] was “Compound NOT metabolized”, the “Bacterial Biotransformation” value [8] was “Compound NOT metabolized” and the “Bacterial Biotransformation” value [9] was “Compound NOT metabolized”. The “Bacterial Biotransformation” value [10] was “Compound NOT metabolized”, the “Bacterial Biotransformation” value [11] was “Compound NOT metabolized” and the “Bacterial Biotransformation” value [12] was “Compound NOT metabolized”. For the same compound, the “Bacterial Biotransformation” value [13] was “Compound NOT metabolized”, the “Bacterial Biotransformation” value [14] was “Compound NOT metabolized” and the “Bacterial Biotransformation” value [15] was “Compound NOT metabolized”. The “Bacterial Biotransformation” value [16] was “Compound NOT metabolized”, the “Bacterial Biotransformation” value [17] was “Compound NOT metabolized” and the “Bacterial Biotransformation” value [18] was “Compound NOT metabolized”.

For `CN1C(=O)CCS(=O)(=O)C1c1ccc(Cl)cc1` (centres undefined) [CHLORMEZANONE], the “Bacterial Biotransformation” value [1] was “Compound NOT metabolized”, the “Bacterial Biotransformation” value [2] was “Compound NOT metabolized” and the “Bacterial Biotransformation” value [3] was “Compound NOT metabolized”. The “Bacterial Biotransformation” value [4] was “Compound NOT metabolized”, the “Bacterial Biotransformation” value [19] was “Compound NOT metabolized” and the “Bacterial Biotransformation” value [6] was “Compound NOT metabolized”. The “Bacterial Biotransformation” value [7] was “Compound NOT metabolized”, the “Bacterial Biotransformation” value [8] was “Compound NOT metabolized” and the “Bacterial Biotransformation” value [9] was “Compound NOT metabolized”. For the same compound, the “Bacterial Biotransformation” value [12] was “Compound NOT metabolized”, the “Bacterial Biotransformation” value [13] was “Compound NOT metabolized” and the “Bacterial Biotransformation” value [20] was “Compound NOT metabolized”. For the same compound, the “Bacterial Biotransformation” value [14] was “Compound NOT metabolized”, the “Bacterial Biotransformation” value [15] was “Compound NOT metabolized” and the “Bacterial Biotransformation” value [16] was “Compound NOT metabolized”. The “Bacterial Biotransformation” value [17] was “Compound NOT metabolized” and the “Bacterial Biotransformation” value [18] was “Compound NOT metabolized”.

In the case of `CC(C)(C)NCC(O)c1cc(Cl)c(N)c(Cl)c1` (centres undefined) [CLENBUTEROL], the “Bacterial Biotransformation” value [1] is reported as “Compound NOT metabolized”, the “Bacterial Biotransformation” value [2] is reported as “Compound NOT metabolized” and the “Bacterial Biotransformation” value [3] is reported as “Compound NOT metabolized”. For the same compound, the “Bacterial Biotransformation” value [4] was “Compound NOT metabolized”, the “Bacterial Biotransformation” value [19] was “Compound NOT metabolized” and the “Bacterial Biotransformation” value [5] was “Compound NOT metabolized”. For the same compound, the “Bacterial Biotransformation” value [6] was “Compound NOT metabolized”, the “Bacterial Biotransformation” value [7] was “Compound NOT metabolized” and the “Bacterial Biotransformation” value [8] was “Compound NOT metabolized”. The “Bacterial Biotransformation” value [9] was “Compound NOT metabolized”, the “Bacterial Biotransformation” value [10] was “Compound NOT metabolized” and the “Bacterial Biotransformation” value [11] was “Compound NOT metabolized”. The “Bacterial Biotransformation” value [12] was “Compound NOT metabolized”, the “Bacterial Biotransformation” value [13] was “Compound NOT metabolized” and the “Bacterial Biotransformation” value [14] was “Compound NOT metabolized”. For the same compound, the “Bacterial Biotransformation” value [15] was “Compound NOT metabolized”, the “Bacterial Biotransformation” value [16] was “Compound NOT metabolized” and the “Bacterial Biotransformation” value [17] was “Compound NOT metabolized”. The “Bacterial Biotransformation” value [18] was “Compound NOT metabolized”.

In the case of `CN1C[C@H](C(=O)N[C@]2(C)O[C@@]3(O)[C@@H]4CCCN4C(=O)[C@H](Cc4ccccc4)N3C2=O)C=C2c3cccc4[nH]cc(c34)C[C@H]21.CN1C[C@H](C(=O)N[C@]2(C)O[C@@]3(O)[C@@H]4CCCN4C(=O)[C@H](Cc4ccccc4)N3C2=O)C=C2c3cccc4[nH]cc(c34)C[C@H]21.O=C(O)C(O)C(O)C(=O)O` [ERGOTAMINE TARTRATE], the “Bacterial Biotransformation” value [1] is reported as “Compound NOT metabolized”, the “Bacterial Biotransformation” value [2] is reported as “Compound NOT metabolized” and the “Bacterial Biotransformation” value [3] is reported as “Compound metabolized”. For the same compound, the “Bacterial Biotransformation” value [4] was “Compound metabolized”, the “Bacterial Biotransformation” value [19] was “Compound metabolized” and the “Bacterial Biotransformation” value [6] was “Compound metabolized”. For the same compound, the “Bacterial Biotransformation” value [7] was “Compound metabolized”, the “Bacterial Biotransformation” value [8] was “Compound metabolized” and the “Bacterial Biotransformation” value [9] was “Compound metabolized”. For the same compound, the “Bacterial Biotransformation” value [10] was “Compound metabolized”, the “Bacterial Biotransformation” value [11] was “Compound metabolized” and the “Bacterial Biotransformation” value [12] was “Compound NOT metabolized”. For the same compound, the “Bacterial Biotransformation” value [13] was “Compound metabolized”, the “Bacterial Biotransformation” value [14] was “Compound metabolized” and the “Bacterial Biotransformation” value [15] was “Compound metabolized”. For the same compound, the “Bacterial Biotransformation” value [16] was “Compound metabolized”, the “Bacterial Biotransformation” value [17] was “Compound metabolized” and the “Bacterial Biotransformation” value [18] was “Compound metabolized”.

For `CC[C@H](C)C(=O)O[C@H]1CCC=C2C=C[C@H](C)[C@H](CC[C@@H]3C[C@@H](O)CC(=O)O3)[C@H]21` [MEVASTATIN], the “Bacterial Biotransformation” value [1] was “Compound metabolized”, the “Bacterial Biotransformation” value [2] was “Compound metabolized” and the “Bacterial Biotransformation” value [3] was “Compound metabolized”. The “Bacterial Biotransformation” value [4] was “Compound metabolized”, the “Bacterial Biotransformation” value [19] was “Compound metabolized” and the “Bacterial Biotransformation” value [5] was “Compound metabolized”. For the same compound, the “Bacterial Biotransformation” value [6] was “Compound metabolized”, the “Bacterial Biotransformation” value [7] was “Compound metabolized” and the “Bacterial Biotransformation” value [8] was “Compound metabolized”. The “Bacterial Biotransformation” value [9] was “Compound metabolized”, the “Bacterial Biotransformation” value [10] was “Compound metabolized” and the “Bacterial Biotransformation” value [11] was “Compound metabolized”. The “Bacterial Biotransformation” value [12] was “Compound metabolized”, the “Bacterial Biotransformation” value [13] was “Compound metabolized” and the “Bacterial Biotransformation” value [14] was “Compound metabolized”. For the same compound, the “Bacterial Biotransformation” value [15] was “Compound metabolized”, the “Bacterial Biotransformation” value [17] was “Compound metabolized” and the “Bacterial Biotransformation” value [18] was “Compound metabolized”.

In the case of `CCS(=O)(=O)CCn1c([N+](=O)[O-])cnc1C` [TINIDAZOLE], the “Bacterial Biotransformation” value [1] is reported as “Compound metabolized”, the “Bacterial Biotransformation” value [2] is reported as “Compound metabolized” and the “Bacterial Biotransformation” value [4] is reported as “Compound NOT metabolized”. The “Bacterial Biotransformation” value [19] was “Compound metabolized”, the “Bacterial Biotransformation” value [5] was “Compound metabolized” and the “Bacterial Biotransformation” value [6] was “Compound NOT metabolized”. The “Bacterial Biotransformation” value [7] was “Compound metabolized”, the “Bacterial Biotransformation” value [8] was “Compound metabolized” and the “Bacterial Biotransformation” value [9] was “Compound metabolized”. The “Bacterial Biotransformation” value [10] was “Compound metabolized”, the “Bacterial Biotransformation” value [11] was “Compound metabolized” and the “Bacterial Biotransformation” value [12] was “Compound metabolized”. The “Bacterial Biotransformation” value [13] was “Compound metabolized”, the “Bacterial Biotransformation” value [20] was “Compound metabolized” and the “Bacterial Biotransformation” value [14] was “Compound metabolized”. The “Bacterial Biotransformation” value [15] was “Compound metabolized”, the “Bacterial Biotransformation” value [16] was “Compound metabolized” and the “Bacterial Biotransformation” value [17] was “Compound metabolized”. For the same compound, the “Bacterial Biotransformation” value [18] was “Compound metabolized”.

— ChEMBL document CHEMBL5303573, “Mapping human microbiome drug metabolism by gut bacteria and their genes” (Nature, 2019)
